Assay results reported in patent publication US10112941B2, “Tricyclic compounds as anticancer agents” (BRISTOL-MYERS SQUIBB COMPANY, priority 2013, dated 2018).

Target: BRD4 (Homo sapiens, UniProt O60885)
Assay: Time Resolved Fluorescence Resonance Energy Transfer (TR-FRET) binding assay, BRD4
Details: FRET BRD4 IC50 (nM), one of the FRET assays described

Structure (SMILES)	IC50
[2H]C([2H])([2H])c1onc(C)c1-c1cnc2c3ccc(C(C)(C)O)cc3n([C@H](c3ccc(F)cc3)C3CCOCC3)c2c1 [Example 284, 2-{5-[(S)-(4-Fluorophenyl)(oxan-4-yl)methyl]-3-[5-(^2H3)methyl-3-methyl-1,2-oxazol-4-yl]-5H-pyrido[3,2-b]indol-7-yl}propan-2-ol]	< 5 nM

Same assay, conditions: one of the FRET assays described; read-out: FRET BRD4 IC50

Structure (SMILES)	IC50
[2H]C([2H])([2H])c1nnn(C)c1-c1cnc2c3c(OCC(C)(F)F)ccc(S(C)(=O)=O)c3n(C(c3ncccc3F)C3CCOCC3)c2c1 (stereo not shown) [Example 248, 2-{[9-(2,2-Difluoropropoxy)-6-methanesulfonyl-3-[4-(^2H3)methyl-1-methyl-1H-1,2,3-triazol-5-yl]-5H-pyrido[3,2-b]indol-5-yl](oxan-4-yl)methyl}-3-fluoropyridine]	< 1500 nM
Cc1nnn(C)c1-c1cnc2c3ccc(C(C)(C)N)cc3n(C(c3ccccc3)C3CCOCC3)c2c1 (single isomer, unassigned) [Example 165, 2-[3-(Dimethyl-1H-1,2,3-triazol-5-yl)-5-[oxan-4-yl(phenyl)methyl]-5H-pyrido[3,2-b]indol-7-yl]propan-2-amine]	< 5 nM
Cc1nnn(C)c1-c1cnc2c3ccc(C(C)(C)N)cc3n(C(c3ccccc3)C3CCOCC3)c2c1 (single isomer, unassigned) [Example 166, 2-[3-(Dimethyl-1H-1,2,3-triazol-5-yl)-5-[oxan-4-yl(phenyl)methyl]-5H-pyrido[3,2-b]indol-7-yl]propan-2-amine]	< 5 nM
Cc1noc(C)c1-c1cnc2c3ccc(C(C)(C)O)cc3n(C(c3ccc(F)c(F)c3)C3CCOCC3)c2c1 (single isomer, unassigned) [Example 141, 2-{5-[(3,4-Difluorophenyl)(oxan-4-yl)methyl]-3-(dimethyl-1,2-oxazol-4-yl)-5H-pyrido[3,2-b]indol-7-yl}propan-2-ol]	< 25 nM
Cc1noc(C)c1-c1cnc2c3ccc(C(O)CC#N)cc3n([C@H](c3ccccc3)C3CCOCC3)c2c1 (single isomer, unassigned) [Example 373]	< 5 nM
Cc1nnn(C)c1-c1cnc2c3ccc(C(C)(C)O)c(F)c3n(C(c3ccncc3F)C3CCOCC3)c2c1 (single isomer, unassigned) [Example 289]	< 5 nM
COc1ccnc([C@H](C2CCOCC2)n2c3cc(CS(C)(=O)=O)ccc3c3ncc(-c4c(C)nnn4C)cc32)c1 [Example 336]	< 5 nM
COc1ccc(C(C2CCOCC2)n2c3cc(C(C)(C)O)ccc3c3ncc(-c4c(C)nnn4C)cc32)c(F)c1F (single isomer, unassigned) [Example 122, 2-{5-[(2,3-Difluoro-4-methoxyphenyl)(oxan-4-yl)methyl]-3-(dimethyl-1H-1,2,3-triazol-5-yl)-5H-pyrido[3,2-b]indol-7-yl}propan-2-ol]	< 5 nM
[2H]C([2H])([2H])c1nnn(C)c1-c1cnc2c3ccc(S(C)(=O)=O)cc3n(C(c3ncccc3F)C3CCC(F)(F)CC3)c2c1 (stereo not shown) [Example 239, 2-[(4,4-Difluorocyclohexyl)({7-methanesulfonyl-3-[4-(^2H3)methyl-1-methyl-1H-1,2,3-triazol-5-yl]-5H-pyrido[3,2-b]indol-5-yl})methyl]-3-fluoropyridine]	< 5 nM
[2H]C([2H])([2H])c1nnn(C)c1-c1cnc2c3ccc(C(C)(C)O)cc3n(C(c3cc(C)on3)C3CCOCC3)c2c1 (stereo not shown) [Example 308, 2-{5-[(5-Methyl-1,2-oxazol-3-yl)(oxan-4-yl)methyl]-3-[4-(^2H3)methyl-1-methyl-1H-1,2,3-triazol-5-yl]-5H-pyrido[3,2-b]indol-7-yl}propan-2-ol]	< 5 nM
Cc1noc(C)c1-c1cnc2c3ccc(C(C)(C)O)cc3n([C@@H](CCC(F)(F)F)c3ccccc3Cl)c2c1 [Example 86]	< 5 nM
Cc1noc(C)c1-c1cnc2c3ccc(S(C)(=O)=O)cc3n([C@H](c3ccc(F)cc3)C3CCOCC3)c2c1 [Example 172, 4-{5-[(S)-(4-Fluorophenyl)(oxan-4-yl)methyl]-7-methanesulfonyl-5H-pyrido[3,2-b]indol-3-yl}-3,5-dimethyl-1,2-oxazole]	< 5 nM
Cc1nnn(C)c1-c1cnc2c3cc(S(C)(=O)=O)ccc3n([C@H](c3ccccc3)C3CCOCC3)c2c1 [Example 375, 5-{8-Methanesulfonyl-5-[(S)-oxan-4-yl(phenyl)methyl]-5H-pyrido[3,2-b]indol-3-yl}-1,4-dimethyl-1H-1,2,3-triazole]	< 5 nM
Cc1nnn(C)c1-c1cnc2c3ccc(C(C)(C)N)c(F)c3n([C@H](c3ccccc3)C3CCOCC3)c2c1 [Example 461, 2-[3-(Dimethyl-1H-1,2,3-triazol-5-yl)-6-fluoro-5-[(S)-oxan-4-yl(phenyl)methyl]-5H-pyrido[3,2-b]indol-7-yl]propan-2-amine]	< 5 nM
Cc1nocc1-c1cnc2c3ccc(C(C)(C)O)cc3n(C(c3ccc(F)cc3)C3CCOCC3)c2c1 (single isomer, unassigned) [Example 43, 2-{5-[(4-Fluorophenyl)(oxan-4-yl)methyl]-3-(3-methyl-1,2-oxazol-4-yl)-5H-pyrido[3,2-b]indol-7-yl}propan-2-ol]	< 1500 nM
Cc1nnn(C)c1-c1cnc2c3ccc(C(O)(C4CC4)C4CC4)cc3n([C@H](c3ccccc3)C3CCOCC3)c2c1 [Example 408, Dicyclopropyl[3-(dimethyl-1H-1,2,3-triazol-5-yl)-5-[(S)-oxan-4-yl(phenyl)methyl]-5H-pyrido[3,2-b]indol-7-yl]methanol]	< 5 nM
[2H]C([2H])([2H])c1nnn(C)c1-c1cnc2c3ccc(S(C)(=O)=O)cc3n(C(c3ncccc3F)C3CCC(F)(F)CC3)c2c1 (stereo not shown) [Example 240, 2-[(4,4-Difluorocyclohexyl)({7-methanesulfonyl-3-[4-(^2H3)methyl-1-methyl-1H-1,2,3-triazol-5-yl]-5H-pyrido[3,2-b]indol-5-yl})methyl]-3-fluoropyridine]	< 5 nM
[2H]C([2H])([2H])c1nnn(C)c1-c1cnc2c3c(F)cc(S(C)(=O)=O)cc3n(C(c3ccccc3)C3CCC(F)(F)CC3)c2c1 (single isomer, unassigned) [Example 199, 5-{5-[(4,4-Difluorocyclohexyl)(phenyl)methyl]-9-fluoro-7-methanesulfonyl-5H-pyrido[3,2-b]indol-3-yl}-4-(^2H3)methyl-1-methyl-1H-1,2,3-triazole]	< 5 nM
[2H]C([2H])([2H])c1nnn(C)c1-c1cnc2c3c(F)cc(S(C)(=O)=O)cc3n([C@H](c3ccccc3F)C3CCOCC3)c2c1 [Example 196, 5-{9-Fluoro-5-[(S)-(2-fluorophenyl)(oxan-4-yl)methyl]-7-methanesulfonyl-5H-pyrido[3,2-b]indol-3-yl}-4-(^2H3)methyl-1-methyl-1H-1,2,3-triazole]	< 25 nM
Cc1nnn(C)c1-c1cnc2c3ccc(C(C)(C)O)cc3n(C(c3ccccc3)C3CCC(F)(F)CC3)c2c1 (single isomer, unassigned) [Example 205]	< 5 nM
Cc1nnn(C)c1-c1cnc2c3c(S(C)(=O)=O)cccc3n([C@H](c3ccc(F)cc3)C3CCOCC3)c2c1 [Example 257, 5-{5-[(S)-(4-Fluorophenyl)(oxan-4-yl)methyl]-9-methanesulfonyl-5H-pyrido[3,2-b]indol-3-yl}-1,4-dimethyl-1H-1,2,3-triazole]	< 5 nM
[2H]C([2H])([2H])c1nnn(C)c1-c1cnc2c3c(OC)cc(S(C)(=O)=O)cc3n(C(c3ncccc3F)C3CCC(F)(F)CC3)c2c1 (single isomer, unassigned) [Example 214, 2-[(4,4-Difluorocyclohexyl)({7-methanesulfonyl-9-methoxy-3-[4-(^2H3)methyl-1-methyl-1H-1,2,3-triazol-5-yl]-5H-pyrido[3,2-b]indol-5-yl})methyl]-3-fluoropyridine]	< 5 nM
Cc1noc(C)c1-c1cnc2c3ccc(C(C)(C)O)cc3n([C@@H](CCC(F)(F)F)c3cscn3)c2c1 [Example 20]	< 25 nM
Cc1nnn(C)c1-c1cnc2c3ccc(C(C)(C)O)cc3n(C(c3cccnn3)C3CCOCC3)c2c1 (single isomer, unassigned) [Example 296]	< 5 nM
COC(=O)Nc1ccc2c3ncc(-c4c(C)nnn4C)cc3n([C@H](c3ccccc3)C3CCOCC3)c2c1 [Example 365, Methyl N-[3-(dimethyl-1H-1,2,3-triazol-5-yl)-5-[(S)-oxan-4-yl(phenyl)methyl]-5H-pyrido[3,2-b]indol-7-yl]carbamate]	< 5 nM
Cc1nnn(C)c1-c1cnc2c3ccc(C(C)(C)O)cc3n(C(CCC(F)(F)F)c3ccccn3)c2c1 (single isomer, unassigned) [Example 253, 2-[3-(Dimethyl-1H-1,2,3-triazol-5-yl)-5-[4,4,4-trifluoro-1-(pyridin-2-yl)butyl]-5H-pyrido[3,2-b]indol-7-yl]propan-2-ol]	< 5 nM
[2H]C([2H])([2H])c1nnn(C)c1-c1cnc2c3ccc(C(C)(C)O)c(F)c3n(C(c3ccc(F)cc3F)C3CCOCC3)c2c1 (stereo not shown) [Example 282, 2-{5-[(2,4-Difluorophenyl)(oxan-4-yl)methyl]-6-fluoro-3-[4-(^2H3)methyl-1-methyl-1H-1,2,3-triazol-5-yl]-5H-pyrido[3,2-b]indol-7-yl}propan-2-ol]	< 5 nM
[2H]C([2H])([2H])c1onc(C)c1-c1cnc2c3c(OC)ccc(S(=O)(=O)C([2H])([2H])[2H])c3n([C@H](c3ccccc3)C3CCOCC3)c2c1 [Example 193, 4-[6-(^2H3)Methanesulfonyl-9-methoxy-5-[(S)-oxan-4-yl(phenyl)methyl]-5H-pyrido[3,2-b]indol-3-yl]-5-(^2H3)methyl-3-methyl-1,2-oxazole]	< 5 nM
[2H]C([2H])([2H])c1nnn(C)c1-c1cnc2c3c(F)cc(S(C)(=O)=O)cc3n([C@H](c3ccccc3)C3CCOCC3)c2c1 [Example 195, 5-{9-Fluoro-7-methanesulfonyl-5-[(S)-oxan-4-yl(phenyl)methyl]-5H-pyrido[3,2-b]indol-3-yl}-4-(^2H3)methyl-1-methyl-1H-1,2,3-triazole]	< 5 nM
Cc1nnn(C)c1-c1cnc2c3ccc(C(C)(O)C(F)(F)F)c(F)c3n([C@H](c3ccccc3)C3CCOCC3)c2c1 (single isomer, unassigned) [Example 441]	< 5 nM
